Source: patent US12338264B2, “Crystalline potassium salt of 2-O-α-D-glucosyl-L-ascorbic acid and method for producing the same” (NAGASE VIITA CO., LTD., priority 2019, dated 2025)

Tests used:
[1] = pH of 1% by mass aqueous solution; format: physicochemical; details: dissolved in deionized water
Method: 1% by mass of aqueous solution of the crystal obtained in Experiment 1 was prepared and its pH was measured.
A commercially available particulate composition containing anhydrous crystalline ascorbic acid 2-glucoside (product name “Ascofresh” (registered trademark), commercialized by Hayashibara Co., Ltd., Okayama, Japan) and a hydrous crystalline potassium salt of ascorbic acid 2-glucoside, obtained by the method in the Experiment 1 were made into compositions with the ratios by mass ranging from 100:0 to 0:100 as shown in Table 3. Each of the resulting compositions was dissolved in deionized water to give a concentration of 1% by mass, following by measuring the pHs of the resulting solutions.

[2] = Hygroscopicity: mass increase on storage at 75.2% relative humidity; format: physicochemical; details: relative humidity 75.2%; for Increase rate of mass: at room temperature, after storage for 24 hours
Method: An experiment was carried out to compare the hygroscopicity of both the hydrous crystalline potassium salt of ascorbic acid 2-glucoside, obtained by the method in the Experiment 1, and the hydrous crystalline sodium salt of ascorbic acid 2-glucoside, obtained by the method described in Patent Literature 10. That is, 0.5 g each of the hydrous crystalline potassium salt of ascorbic acid 2-glucoside and the hydrous crystalline sodium salt of ascorbic acid 2-glucoside were weighted and stored in a desiccator conditioned to 75.2% relative humidity (RH) using saturated salt solution for 24 hours at room temperature. After that, the mass of each was measured, the mass increased by moisture absorption was determined, and the increase rate of mass {(Mass increased by storage)/(Mass at the beginning of storage)×100} (% by mass) was determined.

| Molecule | pH of 1% by mass aqueous solution [1] | Increase rate of mass [2] [% by mass] | Increase rate of mass relative to that of the hydrous crystalline sodium salt of ascorbic acid 2-glucoside ([2]; room temperature, 24 hours) |
| --- | --- | --- | --- |
| O=C1O[C@H]([C@@H](O)CO)C(O)=C1O[C@H]1O[C@H](CO)[C@@H](O)[C@H](O)[C@H]1O [2-O-α-D-Glucosyl-L-ascorbic acid] | 2.2 |  |  |
| O=C1O[C@H]([C@@H](O)CO)C([O-])=C1O[C@H]1O[C@H](CO)[C@@H](O)[C@H](O)[C@H]1O.[K+] [hydrous crystalline potassium salt of ascorbic acid 2-glucoside] | 12.7 | 9.1 | under 60% |
| hydrous crystalline sodium salt of ascorbic acid 2-glucoside [reference compound] |  | 15.8 |  |
